Reference: US7476514B2, “Method for monitoring the immune response and predicting clinical outcomes in transplant recipients” (Cylex, Inc., priority 2002, dated 2009)

System: CD4 cells
Test: Cylex Immune Cell Function Assay (ImmuKnow): PHA-stimulated intracellular ATP in CD4 cells from whole blood of treated transplant patient
Assay type: cell-based, human
Method: Whole blood (100 μl of a 1:4 dilution) was tested in quadruplicate with or without phytohemagglutinin (PHA) (2.5 μg/mL) overnight (15-18 hours in a CO2 incubator at 37° C.). Anti-human CD4 monoclonal antibody coated magnetic particles (Dynal Biotech A.S.A., Oslo, Norway) were added to immunoselect CD4 cells from both the stimulated and non-stimulated wells. After washing the CD4 cells selected on a strong magnet (Cylex™ Cat. 1050) a lysing reagent was added to release intracellular ATP. A luciferin/luciferase mixture was then added to the cell lysate. Within 30 minutes after addition of enzyme, the bioluminescent product was measured in a luminometer (PHL Mediators, Austria or Berthold, Maryville, Tenn., or Turner Designs, Sunnyvale, Calif.) (See FIG. 1). The amount of light emitted (emission maximum 562 nm) was compared to a standard curve generated with ATP calibrators (0, 1, 10, 100, 1000 ng/mL). The concentration of ATP (ng/mL) in each sample was then calculated from the calibration curve using an Excel-based program provided by Cylex™.
(§1) To perform the assay, 200 μl of sodium heparin anticoagulated whole blood was diluted, aliquoted into wells of a 96-well microtiter plate and stimulated overnight with PHA. CD4+ cells were then selected using antibody-coated magnetic particles, washed and lysed to release intracellular ATP. The intensity of the patient's immune response was quantified by measuring the amount of intracellular ATP produced in response to stimulation.
as §1, with “Cylex™ Immune Cell Function Assay,” for “assay,”, “stimulation. Acute rejection was diagnosed by histopathologic studies of random and endoscopically guided multiple mucosal biopsies. […]” for “stimulation.”

C[C@H]1C[C@@H]2[C@H]([C@@H](O)C[C@@]3(C)[C@H]2CC[C@]3(O)C(=O)COC(=O)CCC(=O)[O-])[C@@]2(C)C=CC(=O)C=C12.[Na+] [Solumedrol, methylprednisolone] was tested. Which “change of immune response (ATP)” value (Case Study 2, Solumedrol re-initiated after week 43, read at week 44) did it give?
The value was “dropped significantly”.

Which “immune response (ATP)” value (Case Study 2, multivisceral transplant recipient with acute rejection, week 39, after initial infusion of OKT3/FK and Solumedrol) does the source give for “OKT3: monoclonal antibody OKT3 (anti-CD3), antilymphocyte drug” here?
Its value is 954 ng/mL.

What about the “immune response (ATP)” value (Case Study 2, after additional three-day course of OKT3) of the same compound?
The value was 582 ng/mL.
